Laboratory results: PubChem BioAssay AID1919002 (Molecular Pharmacology Branch, DTP, NCI, 2023)
pIC50: −log10 of the molar value.

Tested on: 743489-274-T-PDC complex spheroid growth
Assay: Anticancer human tumor 743489-274-T-PDC patient-derived renal cell carcinoma cell line growth inhibition [AhR]
Conditions: for pIC50: curve of first compound; for viability, T/C: stronger effect = lower value
Procedure, shortened: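 Complex tumor spheroids co-cultured with HUVEC and human MSC stroma; AhR antagonists tested in combination with standard-of-care and investigational agents. Top concentration at or near clinical Cmax (else 10 microM), half-log dilutions; growth expressed as percent test/control.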

[1] = second compound 0.1 µM, first compound 0.00316 µM
[2] = second compound 0.1 µM, first compound 0.01 µM
[3] = second compound 0.1 µM, first compound 0.0316 µM
[4] = second compound 0.1 µM, first compound 0.1 µM
[5] = second compound 0.316 µM, first compound 0.00316 µM
[6] = second compound 0.316 µM, first compound 0.01 µM
[7] = second compound 0.316 µM, first compound 0.0316 µM
[8] = second compound 0.316 µM, first compound 0.1 µM
[9] = second compound 1 µM, first compound 0.00316 µM
[10] = second compound 1 µM, first compound 0.01 µM
[11] = second compound 1 µM, first compound 0.0316 µM
[12] = second compound 1 µM, first compound 0.1 µM
[13] = second compound 3.16 µM, first compound 0.00316 µM
[14] = second compound 3.16 µM, first compound 0.01 µM
[15] = second compound 3.16 µM, first compound 0.0316 µM
[16] = second compound 3.16 µM, first compound 0.1 µM
[17] = second compound 10 µM, first compound 0.00316 µM
[18] = second compound 10 µM, first compound 0.01 µM
[19] = second compound 10 µM, first compound 0.0316 µM
[20] = second compound 10 µM, first compound 0.1 µM
[21] = second compound 0.1 µM, first compound 0.316 µM
[22] = second compound 0.1 µM, first compound 1 µM
[23] = second compound 0.316 µM, first compound 0.316 µM
[24] = second compound 0.316 µM, first compound 1 µM
[25] = second compound 1 µM, first compound 0.316 µM
[26] = second compound 1 µM, first compound 1 µM
[27] = second compound 3.16 µM, first compound 0.316 µM
[28] = second compound 3.16 µM, first compound 1 µM
[29] = second compound 10 µM, first compound 0.316 µM
[30] = second compound 10 µM, first compound 1 µM
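Also: spheroids exposed to agents for 7 days before readout.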
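For viability, T/C in this document: 100% = DMSO vehicle control wells.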

CC[C@@]1(O)C(=O)OCc2c1cc1n(c2=O)Cc2cc3c(CN(C)C)c(O)ccc3nc2-1 + CC(CO)NC(=O)c1cc(-c2ccc(Cl)cc2)nn(-c2cnn(C)c2)c1=O
pIC50 (second compound 0.1 µM): < 7.00 | pIC50 (second compound 0.316 µM): < 7.00 | pIC50 (second compound 1 µM): < 7.00 | pIC50 (second compound 3.16 µM): < 7.00 | pIC50 (second compound 10 µM): < 7.00 | viability, T/C (second compound 0.1 µM, first compound 0.000316 µM): 99.8% | viability, T/C (second compound 0.1 µM, first compound 0.001 µM): 97.9% | viability, T/C [1]: 91.4% | viability, T/C [2]: 94.4% | viability, T/C [3]: 86.6% | viability, T/C [4]: 86.4% | viability, T/C (second compound 0.316 µM, first compound 0.000316 µM): 90.7% | viability, T/C (second compound 0.316 µM, first compound 0.001 µM): 96.5% | viability, T/C [5]: 102% | viability, T/C [6]: 84.7% | viability, T/C [7]: 83.3% | viability, T/C [8]: 82.3% | viability, T/C (second compound 1 µM, first compound 0.000316 µM): 96.2% | viability, T/C (second compound 1 µM, first compound 0.001 µM): 98.9% | viability, T/C [9]: 95.4% | viability, T/C [10]: 87% | viability, T/C [11]: 86.2% | viability, T/C [12]: 79% | viability, T/C (second compound 3.16 µM, first compound 0.000316 µM): 91.2% | viability, T/C (second compound 3.16 µM, first compound 0.001 µM): 89.9% | viability, T/C [13]: 92.4% | viability, T/C [14]: 84% | viability, T/C [15]: 92.5% | viability, T/C [16]: 88.3% | viability, T/C (second compound 10 µM, first compound 0.000316 µM): 92.4% | viability, T/C (second compound 10 µM, first compound 0.001 µM): 92.7% | viability, T/C [17]: 109% | viability, T/C [18]: 92.4% | viability, T/C [19]: 85.9% | viability, T/C [20]: 81.4%

Nc1ncn(C2CC(O)C(CO)O2)c(=O)n1 (stereo not given) + CC(CO)NC(=O)c1cc(-c2ccc(Cl)cc2)nn(-c2cnn(C)c2)c1=O
pIC50 (second compound 0.1 µM): < 6.00 | pIC50 (second compound 0.316 µM): < 6.00 | pIC50 (second compound 1 µM): < 6.00 | pIC50 (second compound 3.16 µM): < 6.00 | pIC50 (second compound 10 µM): < 6.00 | viability, T/C [1]: 88.6% | viability, T/C [2]: 93.4% | viability, T/C [3]: 98.4% | viability, T/C [4]: 87.5% | viability, T/C [21]: 99.4% | viability, T/C [22]: 91.4% | viability, T/C [5]: 80.4% | viability, T/C [6]: 89.9% | viability, T/C [7]: 91% | viability, T/C [8]: 98% | viability, T/C [23]: 84.5% | viability, T/C [24]: 85.3% | viability, T/C [9]: 94.8% | viability, T/C [10]: 93.2% | viability, T/C [11]: 89.9% | viability, T/C [12]: 94.7% | viability, T/C [25]: 101% | viability, T/C [26]: 88.6% | viability, T/C [13]: 95.2% | viability, T/C [14]: 85.2% | viability, T/C [15]: 96% | viability, T/C [16]: 92.3% | viability, T/C [27]: 85% | viability, T/C [28]: 84.3% | viability, T/C [17]: 88.2% | viability, T/C [18]: 96% | viability, T/C [19]: 88.7% | viability, T/C [20]: 93.9% | viability, T/C [29]: 82.9% | viability, T/C [30]: 107%

COc1cc(Nc2ncc3c(n2)-c2ccc(Cl)cc2C(c2c(F)cccc2OC)=NC3)ccc1C(=O)O + Cc1ccccc1N=Nc1ccc(NC(=O)c2ccnn2C)c(C)c1
pIC50 (second compound 0.1 µM): < 5.00 | pIC50 (second compound 0.316 µM): < 5.00 | pIC50 (second compound 1 µM): < 5.00 | pIC50 (second compound 3.16 µM): < 5.00 | pIC50 (second compound 10 µM): < 5.00 | viability, T/C [3]: 93.3% | viability, T/C [4]: 93% | viability, T/C [21]: 86.6% | viability, T/C [22]: 87.5% | viability, T/C (second compound 0.1 µM, first compound 3.16 µM): 95.4% | viability, T/C (second compound 0.1 µM, first compound 10 µM): 79.8% | viability, T/C [7]: 91.4% | viability, T/C [8]: 88.1% | viability, T/C [23]: 79.9% | viability, T/C [24]: 77.2% | viability, T/C (second compound 0.316 µM, first compound 3.16 µM): 87.1% | viability, T/C (second compound 0.316 µM, first compound 10 µM): 90% | viability, T/C [11]: 93% | viability, T/C [12]: 98% | viability, T/C [25]: 75.5% | viability, T/C [26]: 77% | viability, T/C (second compound 1 µM, first compound 3.16 µM): 83.4% | viability, T/C (second compound 1 µM, first compound 10 µM): 81.5% | viability, T/C [15]: 80.4% | viability, T/C [16]: 94.2% | viability, T/C [27]: 70.5% | viability, T/C [28]: 78.4% | viability, T/C (second compound 3.16 µM, first compound 3.16 µM): 75.2% | viability, T/C (second compound 3.16 µM, first compound 10 µM): 82% | viability, T/C [19]: 76.8% | viability, T/C [20]: 81.2% | viability, T/C [29]: 76.2% | viability, T/C [30]: 74.3% | viability, T/C (second compound 10 µM, first compound 3.16 µM): 65.8% | viability, T/C (second compound 10 µM, first compound 10 µM): 78.7%
